Measured values reported in paper PMC3806161, “Strychnos pseudoquina and Its Purified Compounds Present an Effective In Vitro Antileishmanial Activity” (Evidence-based Complementary and Alternative Medicine : eCAM, 2013).
Where two headings read alike, the source gives them in different places.

How the values were obtained:
murine macrophages [1] = test system: murine macrophages
Description: (§1) Cell viability was assessed by the MTT assay, and amphotericin B was used as a control. The selectivity index (SI) of the products was calculated by determining the ratio between IC50 and CC50. The hemolytic activity was investigated by incubating the products, in the same concentrations used for cytotoxicity evaluation, with a 5% red blood cell (human O^+) suspension for 1 h at 37°C. Briefly, the erythrocyte suspension was centrifuged (1000 ×g for 10 min), and cell lysis was determined spectrophotometrically (570 nm), as described [24]. The absence of (blank) or 100% presence of hemolysis (positive control) was determined by replacing the products for an equal volume of PBS or distilled water, respectively. The results were determined by the percentage of hemolysis when compared with the negative and positive controls. Data shown are representative of four independent experiments, performed in triplicate, which presented similar results.

murine macrophages [2] = test: Cytotoxicity assay on macrophages (MTT); conditions: for SI, Selectivity Index (ratio between CC50 and IC50): murine macrophages vs L. amazonensis promastigotes
Description: as §1

[3] = test system: stationary-phase promastigotes of L. amazonensis; test: Antileishmanial activity: inhibition of promastigote viability (MTT); assay type: cell-based, Leishmania amazonensis
Description: Cell viability was assessed by measuring the cleavage of 2 mg/mL of MTT [3-(4.5-dimethylthiazol-2-yl)-2.5-diphenyl tetrazolium bromide] (Sigma). Absorbances were measured by using a multiwell scanning spectrophotometer (LABTRADE, model 660) at a wavelength of 570 nm. Amphotericin B (1 μM) was used as a positive control. The concentration of the products needed to inhibit 50% of the Leishmania viability (IC50) was determined by applying the sigmoidal regression of the concentration-response curves, using different concentrations of the compounds.

[4] = test system: L. amazonensis in infected murine macrophages; test: Treatment of infected macrophages; assay type: cell-based, Leishmania amazonensis; conditions: for number of amastigotes per cell: untreated 8.4; for Percentage of infected macrophages after treatment: untreated 87.0
Description: Murine macrophages (5 × 10^5 cells) were plated on round glass coverslips inside the wells of a 24-well culture plate (Nunc) in an RPMI 1640 medium supplemented with 20% FBS, 2 mM L-glutamine, 200 U/mL penicillin, and 100 μg/mL streptomycin, at pH 7.4. After 24 h of incubation at 37°C in 5% CO2, stationary-phase promastigotes of L. amazonensis were added to the wells (5 × 10^6 cells), and the cultures were incubated for 24 h at 37°C in 5% CO2. A previous titration curve was performed to determine the minimum time incubation of parasites with the macrophages, in order to obtain the maximum of infection into the host cells (data not shown). Next, free parasites were removed by extensive washing with an RPMI 1640 medium, and infected macrophages were quantified and treated for 48 h with quercetin 3-O-methyl ether (0, 70, 140, or 280 μM) or strychnobiflavone (0, 40, 80 or 160 μM) for 48 h at […] in 5% CO2. Cells were washed in RPMI 1640 and incubated with 4% paraformaldehyde for 15 min, at which time they were treated with 70% ethanol in an ice bath for 4 h and again washed three times with sterile PBS. Amphotericin B was used as a control. The percentage of the inhibition of Leishmania intra-macrophage viability was determined by counting 200 cells in triplicate.

[5] = test system: Leishmania amazonensis invasion of murine macrophages; test: Inhibition of infection in phagocytic cells (pre-treated promastigotes); assay type: cell-based; conditions: for reductions in infectivity of parasites after treatment: parasites preincubated 4 h at 24°C, versus about 87% infected macrophages with untreated parasites, concentration not given; for number of amastigotes per cell / Percentage of infected macrophages after treatment: 4 h at 24°C; for number of amastigotes per cell: untreated 8.4; for Percentage of infected macrophages after treatment: untreated 87.0
Description: The inhibitory effect of quercetin 3-O-methyl ether and strychnobiflavone on the Leishmania invasion of macrophages was evaluated using promastigotes of L. amazonensis. Parasites (1 × 10^6 cells) were preincubated with different concentrations of quercetin 3-O-methyl ether (0, 70, 140, or 280 μM) or strychnobiflavone (0, 40, 80, or 160 μM) for 4 h at 24°C. […] After incubation, parasites were washed three times with RPMI 1640 medium, quantified, and incubated for 24 h with murine macrophages, using a ratio of 10 parasites per 1 macrophage. After, cells were washed, set, and stained to determine the percentage of infected macrophages by counting 200 cells in triplicate.

O+ human red blood cells = test: Hemolytic activity; assay type: cell-based
Description: as §1

[6] = Cytotoxicity assay on macrophages (MTT); conditions: BALB/c, mouse, murine macrophages
Description: as §1

[7] = Leishmania amazonensis, 48 h, stationary-phase promastigotes, 48 h at 24°C, MTT, read-out: IC50 (inhibitory concentration of 50% of promastigotes of L. amazonensis)
[8] = infected macrophages treated with 70 μM for 48 h
[9] = infected macrophages treated with 140 μM for 48 h
[10] = infected macrophages treated with 280 μM for 48 h
[11] = promastigotes pre-treated with 70 μM
[12] = promastigotes pre-treated with 140 μM
[13] = promastigotes pre-treated with 280 μM
[14] = infected macrophages treated with 40 μM for 48 h
[15] = infected macrophages treated with 80 μM for 48 h
[16] = infected macrophages treated with 160 μM for 48 h
[17] = promastigotes pre-treated with 40 μM
[18] = promastigotes pre-treated with 80 μM
[19] = promastigotes pre-treated with 160 μM

## C[C@@H]1[C@H](O)[C@@H](C)/C=C/C=C/C=C/C=C/C=C/C=C/C=C/[C@H](O[C@@H]2O[C@H](C)[C@@H](O)[C@H](N)[C@@H]2O)C[C@@H]2O[C@](O)(C[C@@H](O)C[C@@H](O)[C@H](O)CC[C@@H](O)C[C@@H](O)CC(=O)O[C@H]1C)C[C@H](O)[C@H]2C(=O)O [AmpB, amphotericin B, reference compound]
Murine macrophages [1]
  toxicity in murine macrophages (in words): highly cytotoxic
Murine macrophages [2]
  SI, Selectivity Index (ratio between CC50 and IC50): 9.9
[3]; [7]
  IC50: 0.1 ± 0.13 µM

## COc1c(-c2ccc(O)c(O)c2)oc2cc(O)cc(O)c2c1=O [Quercetin 3-O-methyl ether, quercetin 3-O-methyl ether]
[4]; [8]
  number of amastigotes per cell: 5.6
  Percentage of infected macrophages after treatment: 72.4%
[4]; [9]
  number of amastigotes per cell: 4.4
  Percentage of infected macrophages after treatment: 68.0%
[4]; [10]
  number of amastigotes per cell: 1.7
  Percentage of infected macrophages after treatment: 46.3%
[5]
  reductions in infectivity of parasites after treatment: ~47%
[5]; [11]
  number of amastigotes per cell: 4.5
  Percentage of infected macrophages after treatment: 67.8%
[5]; [12]
  number of amastigotes per cell: 3.9
  Percentage of infected macrophages after treatment: 61.9%
[5]; [13]
  number of amastigotes per cell: 2.4
  Percentage of infected macrophages after treatment: 46.1%
Murine macrophages [1]
  toxicity in murine macrophages (in words): no significant toxicity
Murine macrophages [2]
  SI, Selectivity Index (ratio between CC50 and IC50): 24.62
Murine macrophages [2]; listed as Quercetin 3-methyl ether
  SI, Selectivity Index (ratio between CC50 and IC50): 24.6
[3]; [7]
  IC50: 8.08 µM
[3]; stationary-phase promastigotes, 48 h at 24°C, MTT, listed as Quercetin 3-methyl ether, read-out: IC50 (inhibitory concentration of 50% of promastigotes of L. amazonensis)
  IC50: 8.1 ± 1.5 µM
O+ human red blood cells
  hemolytic activity / damage to human erythrocytes (in words): no significant damage
O+ human red blood cells; human, 1 h
  RBC50 (50% of human red blood cell lysis): 155.0 ± 33.2 µM

## COc1c(-c2ccc(O)c(O)c2-c2c(O)cc(O)c3c(=O)c(OC)c(-c4ccc(O)c(O)c4)oc23)oc2cc(O)cc(O)c2c1=O [Strychnobiflavone, strychnobiflavone]
[4]; [14]
  number of amastigotes per cell: 1.5
  Percentage of infected macrophages after treatment: 37.9%
[4]; [15]
  number of amastigotes per cell: 1.3
  Percentage of infected macrophages after treatment: 26.3%
[4]; [16]
  number of amastigotes per cell: 0.4
  Percentage of infected macrophages after treatment: 9.6%
[5]
  reductions in infectivity of parasites after treatment: ~72.6%
[5]; [17]
  number of amastigotes per cell: 3.0
  Percentage of infected macrophages after treatment: 53.0%
[5]; [18]
  number of amastigotes per cell: 2.2
  Percentage of infected macrophages after treatment: 47.8%
[5]; [19]
  number of amastigotes per cell: 1.2
  Percentage of infected macrophages after treatment: 23.8%
Murine macrophages [2]; in vitro, after incubation with the products
  toxicity in murine macrophages (in words): no significant toxicity
Murine macrophages [2]
  SI, Selectivity Index (ratio between CC50 and IC50): 39.6
Murine macrophages [2]; listed as strychnobiflavone
  SI, Selectivity Index (ratio between CC50 and IC50): 39.55
[6]
  CC50 at 48 h: 125 ± 4.5 µM
[3]; Leishmania amazonensis, 48 h, read-out: IC50 (inhibitory concentration of 50% of promastigotes of L. amazonensis), stationary-phase promastigotes, 48 h at 24°C, MTT
  IC50: 3.16 µM
[3]; stationary-phase promastigotes, 48 h at 24°C, MTT, read-out: IC50 (inhibitory concentration of 50% of promastigotes of L. amazonensis)
  IC50: 3.2 ± 0.2 µM
O+ human red blood cells; 5% human O+ red blood cell suspension, 1 h at 37°C
  RBC50 (50% of human red blood cell lysis): 209.6 ± 2.5 µM
O+ human red blood cells; O+ human red blood cells
  hemolytic activity / damage to human erythrocytes (in words): no significant damage
